Results as given in patent publication US10975068B2, “6-aminopyridin-3-yl thiazoles as modulators of RORγT” (Janssen Pharmaceutica NV, priority 2016, dated 2021).
pIC50, pKd: −log10 of the molar value. Where two headings read alike, the source gives them in different places.

Key:
full-length human RORγt = full-length human RORγt (Homo sapiens (Human), UniProt P51449); test: RORγt (full-length human) reporter assay, Conditions B or C; assay type: cell-based; conditions: for inhibition at 3 µM: at 3 μM compound concentration, read-out: RORγt (FL) Reporter Assay B or C, % inhibition; for pIC50: read-out: RORγt (FL) Reporter Assay B or C, IC50; for RORγt (FL) Reporter Assay B or C, % inhibition (value marked *): marked *: footnote not given
Procedure, shortened: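 Readout is dual luciferase: firefly (GAL4-driven) normalized to DMSO-only and saturating-reference controls, then to CMV-Renilla. Full-length human RORγt fused to GAL4-DBD was transiently expressed in HEK293T; compound exposure ran overnight (16-20 h) starting 4-6 h after transfection, final FBS 1.3%, DMSO 0.1%.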

[1] = molecular target: human RORγt ligand binding domain (RORγt LBD) (Homo sapiens (Human), UniProt P51449); test: RORγt ThermoFluor® assay (thermal shift binding); conditions: read-out: ThermoFluor® Assay, Kd
Procedure, shortened: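 Binding was inferred from thermal stabilisation (ΔTm) of the E. coli-expressed RORγt LBD (0.065 mg/mL), monitored by 1,8-ANS (60 μM) emission at 500 nm during a 1 °C/min ramp. Buffer was Hepes 100 mM pH 7.0 with NaCl, GSH and Tween-20.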

human RORγt ligand binding domain (RORγt LBD), sequence (P51449 other isoform, or with tags, fused parts or gaps): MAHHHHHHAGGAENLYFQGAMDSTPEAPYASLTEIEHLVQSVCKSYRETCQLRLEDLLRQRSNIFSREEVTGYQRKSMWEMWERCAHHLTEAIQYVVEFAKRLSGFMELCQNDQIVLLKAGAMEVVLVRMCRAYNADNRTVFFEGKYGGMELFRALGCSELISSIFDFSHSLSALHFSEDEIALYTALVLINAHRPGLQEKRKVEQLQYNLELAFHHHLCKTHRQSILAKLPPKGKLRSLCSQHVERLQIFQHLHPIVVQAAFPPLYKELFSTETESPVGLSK
full-length human RORγt, sequence (P51449 other isoform, or with tags, fused parts or gaps): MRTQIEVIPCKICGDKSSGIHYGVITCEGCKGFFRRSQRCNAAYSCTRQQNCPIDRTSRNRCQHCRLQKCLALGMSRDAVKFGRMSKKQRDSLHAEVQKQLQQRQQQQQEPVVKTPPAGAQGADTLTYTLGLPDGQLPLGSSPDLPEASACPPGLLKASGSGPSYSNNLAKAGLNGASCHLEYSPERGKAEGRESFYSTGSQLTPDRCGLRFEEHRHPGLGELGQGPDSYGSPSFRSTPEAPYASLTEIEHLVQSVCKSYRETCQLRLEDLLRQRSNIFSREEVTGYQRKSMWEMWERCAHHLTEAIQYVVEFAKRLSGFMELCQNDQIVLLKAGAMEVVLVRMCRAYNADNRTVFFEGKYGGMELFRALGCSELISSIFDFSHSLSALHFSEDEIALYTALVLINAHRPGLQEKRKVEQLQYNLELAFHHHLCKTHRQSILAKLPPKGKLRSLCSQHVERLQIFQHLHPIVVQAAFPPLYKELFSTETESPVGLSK

Row | Structure (SMILES) | inhibition at 3 µM (full-length human RORγt) | pIC50 (full-length human RORγt) | pKd [1] | RORγt (FL) Reporter Assay B or C, % inhibition (value marked *) (full-length human RORγt; Conditions B or C) | pIC50 (full-length human RORγt; Conditions B or C) | inhibition at 6 µM (full-length human RORγt; read-out: RORγt (FL) Reporter Assay B or C, % inhibition @ 6 μM, Conditions B or C, @ 6 μM)
1 | C[C@H]1CCCN1C(=O)c1nc(C(=O)N2CC(O)C2)sc1-c1cnc(NC(C)(C)C)cc1C(F)(F)F [Example 250, [5-[6-(tert-Butylamino)-4-(trifluoromethyl)-3-pyridyl]-2-(3-hydroxyazetidine-1-carbonyl)thiazol-4-yl]-[(2S)-2-methylpyrrolidin-1-yl]methanone] | 106% | 7.55 | 8.09 |  |  | 
2 | O=C(N[C@H]1CC[C@@H]1O)c1nc(C(=O)N2C3CCC2CC3)c(-c2cnc(N[C@@H](C3CC3)C(F)(F)F)cc2C(F)F)s1 (relative stereo) [Example 444, 4-((1s,4s)-7-Azabicyclo[2.2.1]heptane-7-carbonyl)-5-(6-(((S)-1-cyclopropyl-2,2,2-trifluoroethyl)amino)-4-(difluoromethyl)pyridin-3-yl)-N-((1S*,2S*)-2-hydroxycyclobutyl)thiazole-2-carboxamide] | 102% | 8.35 | 8.64 |  |  | 
3 | C[C@H](Nc1cc(C(F)F)c(-c2sc(C(=O)N[C@@H]3COC[C@H]3O)nc2C(=O)N2CCC[C@@H]2C)cn1)C(F)(F)F [Example 215, 5-(4-(Difluoromethyl)-6-(((1S)-2,2,2-trifluoro-1-methyl-ethyl)amino)-3-pyridyl)-N-((3R,4S)-4-hydroxytetrahydrofuran-3-yl)-4-((2S)-2-methylpyrrolidine-1-carbonyl)thiazole-2-carboxamide] |  |  | 7.92 | 107* % | 7.00 | 
4 | C[C@H]1CCCN1C(=O)c1nc(C(=O)N2CC[C@@H](O)C2)sc1-c1cnc(NC(C)(C)C)cc1C(F)(F)F [Example 349, [5-[6-(tert-Butylamino)-4-(trifluoromethyl)-3-pyridyl]-2-[(3R)-3-hydroxypyrrolidine-1-carbonyl]thiazol-4-yl]-[(2S)-2-methylpyrrolidin-1-yl]methanone] | 105% | 7.20 | 7.96 |  |  | 
5 | CC[C@H](Nc1cc(C(F)F)c(-c2sc(C(=O)N[C@H]3C[C@@H]3O)nc2C(=O)N2CCC[C@@H]2C)cn1)C(F)(F)F (relative stereo) [Example 214, 5-(4-(Difluoromethyl)-6-(((S)-1,1,1-trifluorobutan-2-yl)amino)pyridin-3-yl)-N-((1S*,2S*)-2-hydroxycyclopropyl)-4-((S)-2-methylpyrrolidine-1-carbonyl)thiazole-2-carboxamide] |  |  | 7.92 | 98* % | 7.12 | 
6 | CC[C@H](Nc1cc(C(F)F)c(-c2sc(C(=O)N[C@@H]3C[C@@H]3O)nc2C(=O)N2CCC[C@@H]2C)cn1)C(F)(F)F (relative stereo) [Example 211, 5-(4-(Difluoromethyl)-6-(((S)-1,1,1-trifluorobutan-2-yl)amino)pyridin-3-yl)-N-((1R*,2S*)-2-hydroxycyclopropyl)-4-((S)-2-methylpyrrolidine-1-carbonyl)thiazole-2-carboxamide] |  |  | 8.09 | 104* % | 7.85 | 
7 | CC(C)(O)CNC(=O)c1nc(C(=O)N2CCC(F)CC2)c(-c2cnc(NC3CCCCC3(F)F)cc2C(F)(F)F)s1 (stereo not drawn) [Example 26, 5-(6-((2,2-Difluorocyclohexyl)amino)-4-(trifluoromethyl)pyridin-3-yl)-4-(4-fluoropiperidine-1-carbonyl)-N-(2-hydroxy-2-methylpropyl)thiazole-2-carboxamide] |  |  | 8.02 |  | 7.43 | 111%
8 | C[C@H]1CCCN1C(=O)c1nc(C(=O)N2CC[C@@](C)(O)C2)sc1-c1cnc(NC(C)(C)C)cc1C(F)(F)F (relative stereo) [Example 366, (5-(6-(tert-Butylamino)-4-(trifluoromethyl)pyridin-3-yl)-2-((R*)-3-hydroxy-3-methylpyrrolidine-1-carbonyl)thiazol-4-yl)-((S)-2-methylpyrrolidin-1-yl)methanone] | 97% | 7.20 | 8.00 |  |  | 

More lines, now with the values ahead:

Row | inhibition at 3 µM (full-length human RORγt) | pIC50 (full-length human RORγt) | pKd [1] | RORγt (FL) Reporter Assay B or C, % inhibition (value marked *) (full-length human RORγt; Conditions B or C) | pIC50 (full-length human RORγt; Conditions B or C) | inhibition at 6 µM (full-length human RORγt; read-out: RORγt (FL) Reporter Assay B or C, % inhibition @ 6 μM, Conditions B or C, @ 6 μM) | Structure (SMILES)
9 | 106% | 8.15 | 8.85 |  |  |  | C[C@H]1CCCN1C(=O)c1nc(C(=O)N[C@H](C)C(C)(C)O)sc1-c1cnc(NCC(C)(C)C)cc1C(F)(F)F [Example 334, 5-[6-(2,2-Dimethylpropylamino)-4-(trifluoromethyl)-3-pyridyl]-N-[(1R)-2-hydroxy-1,2-dimethyl-propyl]-4-[(2S)-2-methylpyrrolidine-1-carbonyl]thiazole-2-carboxamide]
10 | 106% | 7.31 | 8.74 |  |  |  | C[C@H](NC(=O)c1nc(C(=O)N2CCC[C@@H]2C)c(-c2cnc(NC3(C)CCC3)cc2C(F)F)s1)C(C)(C)O [Example 322, 5-(4-(Difluoromethyl)-6-((1-methylcyclobutyl)amino)pyridin-3-yl)-N—((S)-3-hydroxy-3-methylbutan-2-yl)-4-((S)-2-methylpyrrolidine-1-carbonyl)thiazole-2-carboxamide]
11 | 103% | 7.96 | 9.04 |  |  |  | C[C@H](Nc1cc(C(F)F)c(-c2sc(C(=O)NCC(C)(C)O)nc2C(=O)N2CCC[C@@H]2C)cn1)C(C)(C)C [Example 299, 5-(4-(Difluoromethyl)-6-(((S)-3,3-dimethylbutan-2-yl)amino)pyridin-3-yl)-N-(2-hydroxy-2-methylpropyl)-4-((S)-2-methylpyrrolidine-1-carbonyl)thiazole-2-carboxamide]
12 |  |  | 8.39 | 96* % | 8.02 |  | CC[C@H](Nc1cc(C(F)F)c(-c2sc(C(=O)N[C@H](C)[C@@H](C)O)nc2C(=O)N2CCC[C@@H]2C)cn1)C(F)(F)F (relative stereo) [Example 216, 5-(4-(Difluoromethyl)-6-(((S)-1,1,1-trifluorobutan-2-yl)amino)pyridin-3-yl)-N-((2R*,3R*)-3-hydroxybutan-2-yl)-4-((S)-2-methylpyrrolidine-1-carbonyl)thiazole-2-carboxamide]
13 | 113% | 7.96 | 8.62 |  |  |  | C[C@H]1CC(F)(F)CN1C(=O)c1nc(C(=O)NCC(C)(C)O)sc1-c1cnc(NCC2(C)CC2)cc1C(F)(F)F [Example 277, 4-[(2S)-4,4-Difluoro-2-methyl-pyrrolidine-1-carbonyl]-N-(2-hydroxy-2-methyl-propyl)-5-[6-[(1-methylcyclopropyl)methylamino]-4-(trifluoromethyl)-3-pyridyl]thiazole-2-carboxamide]
14 |  |  | 8.33 | 94* % | 7.57 |  | CC[C@H](Nc1cc(C(F)F)c(-c2sc(C(=O)NCC(C)(C)O)nc2C(=O)N2CCC[C@@H]2C)cn1)C1CC1 (relative stereo) [Example 166]
15 | 112% | 7.89 | 8.85 |  |  |  | C[C@H](CO)NC(=O)c1nc(C(=O)N2CCC[C@@H]2C)c(-c2cnc(NC(C)(C)C)cc2C(F)(F)F)s1 [Example 346, 5-[6-(tert-Butylamino)-4-(trifluoromethyl)-3-pyridyl]-N-[(1R)-2-hydroxy-1-methyl-ethyl]-4-[(2S)-2-methylpyrrolidine-1-carbonyl]thiazole-2-carboxamide]
16 | 96% | 8.00 | 9.16 |  |  |  | C[C@H]1CCCN1C(=O)c1nc(C(=O)N[C@@H]2CC[C@H]2O)sc1-c1cnc(NC(C)(C)C)cc1C(F)(F)F (relative stereo) [Example 370, 5-(6-(tert-Butylamino)-4-(trifluoromethyl)pyridin-3-yl)-N-((1R*,2R*)-2-hydroxycyclobutyl)-4-((S)-2-methylpyrrolidine-1-carbonyl)thiazole-2-carboxamide]
17 |  |  | 8.89 | 98* % | 7.77 |  | C[C@H](Nc1cc(C(F)(F)F)c(-c2sc(C(=O)N[C@@H](C)C(C)(C)O)nc2C(=O)N2CC(F)(F)C[C@@H]2C)cn1)C1CC1 [Example 202, 5-(6-(((S)-1-Cyclopropylethyl)amino)-4-(trifluoromethyl)pyridine-3-yl)-4-((S)-4,4-difluoro-2-methylpyrrolidine-1-carbonyl)-N—((S)-3-hydroxy-3-methylbutan-2-yl)thiazole-2-carboxamide]
18 | 99% | 7.16 | 8.42 |  |  |  | C[C@H](Nc1cc(C(F)F)c(-c2sc(C(=O)N[C@@H]3CC[C@@H](O)C3)nc2C(=O)N2CCC[C@@H]2C)cn1)C(F)(F)F [Example 289, 5-(4-(Difluoromethyl)-6-(((S)-1,1,1-trifluoropropan-2-yl)amino)pyridin-3-yl)-N-((1R,3R)-3-hydroxycyclopentyl)-4-((S)-2-methylpyrrolidine-1-carbonyl)thiazole-2-carboxamide]
19 | 109% | 7.47 | 8.37 |  |  |  | C[C@H](Nc1cc(C(F)F)c(-c2sc(C(=O)NC3CCOCC3)nc2C(=O)N2CCC[C@@H]2C)cn1)C(F)(F)F [Example 287, 5-(4-(Difluoromethyl)-6-(((S)-1,1,1-trifluoropropan-2-yl)amino)pyridin-3-yl)-4-((S)-2-methylpyrrolidine-1-carbonyl)-N-(tetrahydro-2H-pyran-4-yl)thiazole-2-carboxamide]
